Measured values from patent publication US20220265625A1, “COMPOSITIONS AND METHODS USING TRIGONELLINE AND MINERALS FOR PREVENTING OR TREATING CONDITIONS OR DISORDERS IN SKELETAL MUSCLE” (SOCIETE DES PRODUITS NESTLE S.A., priority 2019, published 2022).

Legend:
[1] = tested on: Human Skeletal Muscle Myotubes (HSMM); settings: 6h
Protocol: Human primary myoblasts from two different donors were seeded in 6 well plates at a density of 200′000 cells per well in skeletal muscle growth medium (SKM-M, AMSbio). After one day, the differentiation was induced by a medium change for 4 days using differentiation culture medium
(Gibco No. 31330-028). Cells were treated with isotopically labelled trigonelline (^13C carbonyl; 3^2H on methyl) for 6h.
Cell extracts were separated on a Vanquish UHPLC +focused LC system (Thermo Scientific) with a hydrophilic liquid chromatography (HILIC) iHILIC-Fusion(P) column (Hilicon) carrying the dimensions 150 x 2.1 mm, 5 pm and a guard column (iHILIC-fusion(P), Hilicon) in front. The separation of metabolites was achieved by applying a linear solvent gradient in normal phase at 0.25 mL/min flow rate and 35° C. of temperature. As mobile phase, solvent A was water with 10 mM ammonium acetate and 0.04% (v/v) ammonium hydroxide, pH ˜9.3, and solvent B was acetonitrile.
The eluting metabolites were analyzed with an Orbitrap Fusion Lumos mass spectrometer (Thermo Scientific) with a heated electrospray ionization (H-ESI) source in positive and negative mode at a resolution of 60,000 at m/z of 200. Instrument control and data analysis were conducted using Xcalibur (Thermo Scientific).

C. elegans [2] = settings: 1mM trigonelline chloride, day 8 old worms
Protocol: Absolute quantification of the mtDNA copy number in wild type N2 worms was performed by real-time PCR. Relative values for nduo-1, and act-1 were compared within each sample to generate a ratio representing the relative level of mitochondrial DNA per nuclear genome. The average of at least two technical repeats was used for each biological data point. Each experiment was performed on at least ten independent biological samples (individual worms). Trigonelline treatment with 1mM trigonelline chloride and experimental measurements were started at Day 1 of wild type N2 worm adulthood, in a regimen of chronic exposure till experiments termination.

[3] = tested on: RW1596 (myo-3p::GFP) worms; settings: 1mM trigonelline chloride, 11 day old worms
Protocol: RW1596 (myo-3p::GFP) worms were collected at Day 1 (young adults) and at Day 11 (aged animals) for muscle integrity assessment. Worms were immobilized with tetramisole and analyzed by confocal microscopy, to assess the muscle fibers morphology shown by GFP fluorescence imaging. Trigonelline treatment with 1mM trigonelline chloride and experimental measurements were started at Day 1 of wild type N2 worm adulthood, in a regimen of chronic exposure till experiments termination.

C. elegans [4] = settings: 1 mM
Protocol: C. elegans mobility test was performed using the Movement Tracker software (Mouchiroud, L. et al. Curr Protoc Neurosci 77, 8.37.1-8.37.21 (2016)). The experiments were repeated at least twice. Trigonelline treatment and experimental measurements were started at Day 1 of wild type N2 worm adulthood, in a regimen of chronic exposure till experiments termination.

C. elegans [5] = settings: 1 mM, day 8 and day 11 old worms
From the text: 45 to 60 worms per condition were manually scored for mobility after poking. Worms that were unable to respond to any repeated stimulation were scored as dead. […] Trigonelline treatment and experimental measurements were started at Day 1 of wild type N2 worm adulthood, in a regimen of chronic exposure til experiments termination.

C. elegans [6] = settings: 1mM, chronic exposure from Day 1 adulthood
Protocol: Worm lifespan tests were performed using about 100 animals per condition and scored manually every other day. Trigonelline treatment and experimental measurements were started at Day 1 of wild type N2 worm adulthood, in a regimen of chronic exposure till experiments termination.

Human primary myoblasts = assay: NAD+ colorimetric quantification in differentiated human primary myoblasts; assay type: cell-based; settings: 16h, different doses
Protocol: After one day, the differentiation is induced by a medium change for 4 days. Cells were treated with synthetic trigonelline monohydrate (FIG. 4A) or with Fenugreek seed extract enriched in trigonelline containing 40.45% trigonelline (FIG. 4B) for 16h at difference doses. NAD+was measured using colorimetric NAD+quantification assay (Biovision NAD+/NADH Quantitation Colorimetric Kit #k337-100).

C57BL/6JRj male mice = assay: Liver NAD+ after oral gavage in mice; assay type: in vivo; settings: equimolar of 300mg/kg trigonelline, 120 minutes
Protocol: 10 weeks C57BL/6JRj male mice received trigonelline (sigma #T5509) or fenugreek seed extract enriched in trigonelline (40.45% trigonelline) by oral gavage (equimolar of 300mg/kg trigonelline, n=8/group). After 120 minutes treatment, the liver was harvested and flash frozen in liquid nitrogen. NAD+was measured in liver using an enzymatic method adapted from Dall, M., et al., Mol Cell Endocrinol, 2018. 473: p. 245-256.

[2H]C([2H])([2H])[n+]1cccc([13C](=O)[O-])c1 [labelled trigonelline, reference compound]
relative abundance of labelled NAD+(M+1) (FIG. 2B) ([1]; labelled trigonelline 500pm, vs naturally occurring NAD+ in control): increase

C[n+]1cccc(C(=O)[O-])c1 [trigonelline, 1-methylpyridin-1-ium-3-carboxylate]
mitochondrial expression relative to nuclear expression (mt/nDNA, nduo-1/act-1) (C. elegans [2]): higher than in the control group
NAD+ relative concentration vs control (FIG. 2A) ([1]; HSMM from 2 donors, 500pm, LC-MS): enhancement
myofibrillar structure (GFP-tagged myosin) vs age matched control [3]: improved more organized myofibrillar structure

C[n+]1cccc(C(=O)O)c1 [trigonelline chloride]
distance travelled during spontaneous mobility assay vs control (C. elegans [4]; advanced aging phase): significantly increased
mean speed during spontaneous mobility assay vs control (C. elegans [4]; from day 1 adulthood): increased the mean speed
stimulated mobility score (worms responsive to a physical stimulus) (C. elegans [5]): more responsive to a physical stimulus than the control
increase in lifespan (C. elegans [6]): 21%

C[n+]1cccc(C(=O)O)c1.[OH-] [chemically synthesized trigonelline]
NAD+ content compared to the control (Human primary myoblasts): significant increase
NAD+ content in the liver compared to the control (C57BL/6JRj male mice): significant increase
